Source: ChEMBL document CHEMBL5291721, “A preclinical secondary pharmacology resource illuminates target-adverse drug reaction associations of marketed drugs” (Nat Commun, 2023)

Tests used:
D(3) dopamine receptor = D(3) dopamine receptor (Homo sapiens, UniProt P35462)
[1] = target: T1, Amine oxidase [flavin-containing] A (Homo sapiens, UniProt P21397); type: functional
T1 sequence (P21397 whole entry): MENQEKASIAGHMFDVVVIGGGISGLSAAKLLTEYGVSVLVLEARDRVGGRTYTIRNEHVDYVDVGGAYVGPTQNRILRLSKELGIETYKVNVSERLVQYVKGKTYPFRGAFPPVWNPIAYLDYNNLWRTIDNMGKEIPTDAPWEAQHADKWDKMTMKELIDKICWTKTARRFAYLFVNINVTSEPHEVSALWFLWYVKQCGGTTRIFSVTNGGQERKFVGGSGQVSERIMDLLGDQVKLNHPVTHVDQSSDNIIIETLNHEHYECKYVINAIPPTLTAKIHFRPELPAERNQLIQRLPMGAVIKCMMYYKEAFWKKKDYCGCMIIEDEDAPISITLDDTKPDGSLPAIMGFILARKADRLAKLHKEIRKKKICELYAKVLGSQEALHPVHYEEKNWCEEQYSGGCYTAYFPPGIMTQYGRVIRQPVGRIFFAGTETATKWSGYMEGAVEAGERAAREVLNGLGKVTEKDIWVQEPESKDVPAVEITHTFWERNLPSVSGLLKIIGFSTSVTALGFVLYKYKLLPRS

[2] = target: Beta-2 adrenergic receptor (Homo sapiens, UniProt P07550)
[3] = target: T2, Cholecystokinin receptor type A (Homo sapiens, UniProt P32238)
T2 sequence (P32238 whole entry): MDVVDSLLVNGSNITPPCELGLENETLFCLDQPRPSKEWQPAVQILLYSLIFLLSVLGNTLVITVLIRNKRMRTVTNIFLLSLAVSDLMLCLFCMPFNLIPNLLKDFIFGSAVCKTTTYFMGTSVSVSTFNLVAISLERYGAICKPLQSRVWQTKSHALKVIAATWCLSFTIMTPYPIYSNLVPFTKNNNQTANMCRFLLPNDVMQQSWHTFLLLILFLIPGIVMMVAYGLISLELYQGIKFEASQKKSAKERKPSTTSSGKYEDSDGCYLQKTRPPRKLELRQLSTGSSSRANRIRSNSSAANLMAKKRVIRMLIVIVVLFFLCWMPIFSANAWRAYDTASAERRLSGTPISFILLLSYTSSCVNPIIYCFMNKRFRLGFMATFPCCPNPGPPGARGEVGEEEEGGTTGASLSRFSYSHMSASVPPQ

Adenosine receptor A2a = Adenosine receptor A2a (Homo sapiens, UniProt P29274)
Histamine H3 receptor = Histamine H3 receptor (Homo sapiens, UniProt Q9Y5N1)
[4] = target: 5-hydroxytryptamine receptor 2B (Homo sapiens, UniProt P41595); type: functional, cell-based
[5] = target: Sodium-dependent noradrenaline transporter (Homo sapiens, UniProt P23975)
Progesterone receptor = target: T3, Progesterone receptor (Homo sapiens, UniProt P06401); type: functional
T3 sequence (P06401 whole entry): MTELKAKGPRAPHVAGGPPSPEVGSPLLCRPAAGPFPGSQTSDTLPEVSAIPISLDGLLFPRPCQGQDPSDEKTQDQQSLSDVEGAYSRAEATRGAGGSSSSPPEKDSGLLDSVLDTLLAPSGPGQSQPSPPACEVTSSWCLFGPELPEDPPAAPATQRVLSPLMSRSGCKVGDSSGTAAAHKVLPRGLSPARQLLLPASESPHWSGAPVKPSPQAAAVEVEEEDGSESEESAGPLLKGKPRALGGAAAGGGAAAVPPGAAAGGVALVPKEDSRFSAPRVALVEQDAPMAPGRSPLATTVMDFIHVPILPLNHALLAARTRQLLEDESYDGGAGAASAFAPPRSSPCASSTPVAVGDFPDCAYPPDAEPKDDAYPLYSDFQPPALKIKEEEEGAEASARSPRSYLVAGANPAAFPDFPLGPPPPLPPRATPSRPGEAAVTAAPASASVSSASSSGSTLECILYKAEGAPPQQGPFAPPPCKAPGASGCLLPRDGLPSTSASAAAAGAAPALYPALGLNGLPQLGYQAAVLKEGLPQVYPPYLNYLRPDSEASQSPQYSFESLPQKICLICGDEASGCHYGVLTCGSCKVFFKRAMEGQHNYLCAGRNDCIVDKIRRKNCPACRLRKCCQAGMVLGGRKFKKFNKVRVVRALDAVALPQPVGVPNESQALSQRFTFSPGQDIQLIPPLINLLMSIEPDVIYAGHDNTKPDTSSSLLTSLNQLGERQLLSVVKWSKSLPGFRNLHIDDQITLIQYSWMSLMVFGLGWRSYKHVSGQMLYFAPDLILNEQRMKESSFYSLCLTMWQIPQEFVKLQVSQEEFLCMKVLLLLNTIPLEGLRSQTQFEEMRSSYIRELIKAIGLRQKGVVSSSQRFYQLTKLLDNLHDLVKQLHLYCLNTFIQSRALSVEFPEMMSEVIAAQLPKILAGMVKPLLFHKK

[6] = target: T4, Neuropeptide Y receptor type 1 (Homo sapiens, UniProt P25929)
T4 sequence (P25929 whole entry): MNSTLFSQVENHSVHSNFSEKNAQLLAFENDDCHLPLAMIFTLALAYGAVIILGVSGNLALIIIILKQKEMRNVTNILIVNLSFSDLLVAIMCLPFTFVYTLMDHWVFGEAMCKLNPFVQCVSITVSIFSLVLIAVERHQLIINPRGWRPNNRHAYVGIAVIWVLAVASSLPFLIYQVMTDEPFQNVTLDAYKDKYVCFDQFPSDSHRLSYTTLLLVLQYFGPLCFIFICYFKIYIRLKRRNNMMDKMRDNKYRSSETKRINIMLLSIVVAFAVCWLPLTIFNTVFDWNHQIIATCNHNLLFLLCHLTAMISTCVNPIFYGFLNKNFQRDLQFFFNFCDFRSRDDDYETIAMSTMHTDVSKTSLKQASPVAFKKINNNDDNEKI

Histamine H2 receptor = Histamine H2 receptor (Homo sapiens, UniProt P25021); type: functional, cell-based
[7] = target: Glutamate receptor ionotropic, NMDA 1 (Rattus norvegicus, UniProt P35439)
[8] = target: Vascular endothelial growth factor receptor 2 (Homo sapiens, UniProt P35968); type: functional
Further: assay procedure not described here.

Chain of Adenosine receptor A2a (P29274 whole entry): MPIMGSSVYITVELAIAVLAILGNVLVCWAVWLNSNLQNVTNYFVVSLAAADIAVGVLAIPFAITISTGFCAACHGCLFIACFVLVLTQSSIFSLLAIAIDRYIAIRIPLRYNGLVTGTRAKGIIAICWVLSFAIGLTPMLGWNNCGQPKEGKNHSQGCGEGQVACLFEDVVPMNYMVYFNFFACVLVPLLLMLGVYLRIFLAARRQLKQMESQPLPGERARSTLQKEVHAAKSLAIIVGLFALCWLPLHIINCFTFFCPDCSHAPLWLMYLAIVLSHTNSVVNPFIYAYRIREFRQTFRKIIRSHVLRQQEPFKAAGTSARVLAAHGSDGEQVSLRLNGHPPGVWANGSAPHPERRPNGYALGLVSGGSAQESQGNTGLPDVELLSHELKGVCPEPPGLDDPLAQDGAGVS
Chain of Histamine H2 receptor (P25021 whole entry): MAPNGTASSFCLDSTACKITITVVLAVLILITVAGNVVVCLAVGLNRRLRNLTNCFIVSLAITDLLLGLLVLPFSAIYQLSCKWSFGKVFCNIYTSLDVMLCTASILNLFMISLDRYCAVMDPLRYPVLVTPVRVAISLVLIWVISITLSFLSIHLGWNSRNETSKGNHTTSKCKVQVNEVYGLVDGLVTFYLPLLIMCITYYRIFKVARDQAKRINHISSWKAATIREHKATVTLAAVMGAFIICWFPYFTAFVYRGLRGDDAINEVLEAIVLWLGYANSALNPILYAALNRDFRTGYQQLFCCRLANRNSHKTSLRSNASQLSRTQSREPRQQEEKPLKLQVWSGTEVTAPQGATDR
Chain of D(3) dopamine receptor (P35462 whole entry): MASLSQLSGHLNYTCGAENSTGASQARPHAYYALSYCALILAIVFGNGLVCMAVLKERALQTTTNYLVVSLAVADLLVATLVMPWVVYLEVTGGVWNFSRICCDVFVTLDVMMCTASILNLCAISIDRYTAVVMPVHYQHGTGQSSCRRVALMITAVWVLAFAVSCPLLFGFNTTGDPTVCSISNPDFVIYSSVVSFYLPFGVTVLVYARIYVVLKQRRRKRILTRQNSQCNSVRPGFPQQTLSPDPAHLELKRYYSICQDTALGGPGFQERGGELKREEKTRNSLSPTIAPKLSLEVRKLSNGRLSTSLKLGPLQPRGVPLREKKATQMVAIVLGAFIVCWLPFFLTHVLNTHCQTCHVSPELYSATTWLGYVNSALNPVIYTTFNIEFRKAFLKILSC
Chain of Sodium-dependent noradrenaline transporter (P23975 whole entry): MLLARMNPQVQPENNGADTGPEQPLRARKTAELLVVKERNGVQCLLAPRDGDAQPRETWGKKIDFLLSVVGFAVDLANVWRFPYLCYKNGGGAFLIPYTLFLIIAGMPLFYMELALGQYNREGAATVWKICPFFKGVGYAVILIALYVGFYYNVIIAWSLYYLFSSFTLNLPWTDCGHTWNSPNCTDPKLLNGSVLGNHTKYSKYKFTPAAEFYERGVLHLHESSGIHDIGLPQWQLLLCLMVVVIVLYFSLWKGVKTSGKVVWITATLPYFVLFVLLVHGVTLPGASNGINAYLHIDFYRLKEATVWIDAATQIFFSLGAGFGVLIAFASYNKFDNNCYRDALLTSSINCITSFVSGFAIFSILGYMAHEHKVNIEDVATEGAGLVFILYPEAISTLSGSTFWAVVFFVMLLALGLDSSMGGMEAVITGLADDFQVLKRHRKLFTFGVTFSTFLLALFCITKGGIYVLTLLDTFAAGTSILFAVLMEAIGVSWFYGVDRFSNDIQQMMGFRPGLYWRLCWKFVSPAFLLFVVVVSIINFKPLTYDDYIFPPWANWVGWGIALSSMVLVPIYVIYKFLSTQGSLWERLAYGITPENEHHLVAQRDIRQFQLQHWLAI
Chain of Beta-2 adrenergic receptor (P07550 whole entry): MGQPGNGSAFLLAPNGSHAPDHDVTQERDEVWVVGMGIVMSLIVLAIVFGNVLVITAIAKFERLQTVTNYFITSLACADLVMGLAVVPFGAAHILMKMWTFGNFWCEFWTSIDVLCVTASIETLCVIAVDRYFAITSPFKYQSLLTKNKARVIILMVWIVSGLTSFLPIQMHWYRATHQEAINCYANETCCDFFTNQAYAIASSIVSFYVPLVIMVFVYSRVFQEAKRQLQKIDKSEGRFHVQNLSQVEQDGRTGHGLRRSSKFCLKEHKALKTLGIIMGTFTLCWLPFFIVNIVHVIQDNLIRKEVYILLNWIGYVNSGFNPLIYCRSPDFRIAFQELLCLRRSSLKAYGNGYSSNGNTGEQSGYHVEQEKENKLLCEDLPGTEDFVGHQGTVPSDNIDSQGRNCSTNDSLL
Chain of Histamine H3 receptor (Q9Y5N1 whole entry): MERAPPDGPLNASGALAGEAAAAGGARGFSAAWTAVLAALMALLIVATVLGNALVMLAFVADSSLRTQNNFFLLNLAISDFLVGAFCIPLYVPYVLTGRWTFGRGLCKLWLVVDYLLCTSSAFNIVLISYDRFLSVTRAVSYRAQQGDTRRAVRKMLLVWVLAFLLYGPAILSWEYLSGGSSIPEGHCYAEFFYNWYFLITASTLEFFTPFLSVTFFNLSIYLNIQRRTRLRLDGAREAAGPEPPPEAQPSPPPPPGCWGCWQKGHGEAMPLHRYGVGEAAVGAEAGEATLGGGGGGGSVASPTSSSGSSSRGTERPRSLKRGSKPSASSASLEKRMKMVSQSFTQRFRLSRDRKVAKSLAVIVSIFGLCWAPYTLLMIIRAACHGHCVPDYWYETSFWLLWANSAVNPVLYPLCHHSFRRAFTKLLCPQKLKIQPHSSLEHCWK
Chain of Vascular endothelial growth factor receptor 2 (P35968 whole entry): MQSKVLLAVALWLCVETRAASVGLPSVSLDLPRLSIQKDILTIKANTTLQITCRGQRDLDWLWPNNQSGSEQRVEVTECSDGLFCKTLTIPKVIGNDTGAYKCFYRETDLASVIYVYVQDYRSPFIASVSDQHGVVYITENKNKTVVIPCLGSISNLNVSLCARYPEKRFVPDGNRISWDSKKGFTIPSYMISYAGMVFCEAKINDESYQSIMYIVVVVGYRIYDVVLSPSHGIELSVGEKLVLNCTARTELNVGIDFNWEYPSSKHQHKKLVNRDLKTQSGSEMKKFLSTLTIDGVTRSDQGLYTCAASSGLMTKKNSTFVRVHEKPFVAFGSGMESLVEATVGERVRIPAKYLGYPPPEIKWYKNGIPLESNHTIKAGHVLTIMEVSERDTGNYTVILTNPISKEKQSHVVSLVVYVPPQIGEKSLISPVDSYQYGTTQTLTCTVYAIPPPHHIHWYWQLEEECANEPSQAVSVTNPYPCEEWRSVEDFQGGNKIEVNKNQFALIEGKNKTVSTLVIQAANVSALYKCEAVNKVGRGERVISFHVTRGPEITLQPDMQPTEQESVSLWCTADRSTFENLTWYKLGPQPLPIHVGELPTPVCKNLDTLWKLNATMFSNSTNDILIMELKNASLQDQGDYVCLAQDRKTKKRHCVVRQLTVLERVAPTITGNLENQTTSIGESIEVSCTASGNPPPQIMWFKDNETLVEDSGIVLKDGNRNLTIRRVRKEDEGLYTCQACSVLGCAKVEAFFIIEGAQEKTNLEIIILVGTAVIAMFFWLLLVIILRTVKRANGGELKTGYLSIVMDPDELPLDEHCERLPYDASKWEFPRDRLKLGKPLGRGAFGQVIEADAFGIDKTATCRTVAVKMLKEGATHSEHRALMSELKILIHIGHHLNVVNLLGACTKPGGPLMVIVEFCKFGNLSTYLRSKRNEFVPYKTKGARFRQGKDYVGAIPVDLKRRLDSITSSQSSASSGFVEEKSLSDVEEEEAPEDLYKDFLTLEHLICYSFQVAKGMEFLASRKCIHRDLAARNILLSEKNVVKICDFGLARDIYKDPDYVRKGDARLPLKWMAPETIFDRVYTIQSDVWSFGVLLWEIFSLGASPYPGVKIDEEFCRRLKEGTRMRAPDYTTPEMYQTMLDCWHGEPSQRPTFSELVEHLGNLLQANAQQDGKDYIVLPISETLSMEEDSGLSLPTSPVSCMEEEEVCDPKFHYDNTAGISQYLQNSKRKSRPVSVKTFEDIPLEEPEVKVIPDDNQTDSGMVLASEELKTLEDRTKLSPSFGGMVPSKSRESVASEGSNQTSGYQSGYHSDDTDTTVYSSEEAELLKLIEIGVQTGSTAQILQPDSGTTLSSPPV
Chain of 5-hydroxytryptamine receptor 2B (P41595 whole entry): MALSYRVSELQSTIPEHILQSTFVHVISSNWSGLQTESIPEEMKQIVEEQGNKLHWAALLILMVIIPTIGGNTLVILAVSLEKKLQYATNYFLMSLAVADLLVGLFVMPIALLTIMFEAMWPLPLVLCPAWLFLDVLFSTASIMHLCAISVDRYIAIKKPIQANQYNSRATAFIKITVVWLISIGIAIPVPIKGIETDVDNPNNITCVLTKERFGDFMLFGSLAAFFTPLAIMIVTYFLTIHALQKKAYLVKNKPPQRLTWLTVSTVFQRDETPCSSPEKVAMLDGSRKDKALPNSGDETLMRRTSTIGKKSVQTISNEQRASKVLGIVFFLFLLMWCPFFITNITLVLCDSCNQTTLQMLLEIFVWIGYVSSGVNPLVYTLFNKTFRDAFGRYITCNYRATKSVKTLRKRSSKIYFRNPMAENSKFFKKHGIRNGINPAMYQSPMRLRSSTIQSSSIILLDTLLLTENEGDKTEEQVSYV

| SMILES | AC50 (D(3) dopamine receptor) | AC50 [1] | AC50 [2] | AC50 [3] | AC50 (Adenosine receptor A2a) | AC50 (Histamine H3 receptor) | AC50 [4] | AC50 [5] | AC50 (Progesterone receptor) | AC50 [6] | AC50 (Histamine H2 receptor) | AC50 [7] | AC50 [8] |
| --- | --- | --- | --- | --- | --- | --- | --- | --- | --- | --- | --- | --- | --- |
| CCCc1nc2c(C)cc(-c3nc4ccccc4n3C)cc2n1Cc1ccc(-c2ccccc2C(=O)O)cc1 | > 30 µM | > 30 µM | > 30 µM | 2.43 µM | > 30 µM | > 30 µM | > 30 µM | > 30 µM | > 30 µM | > 30 µM | > 10 µM | > 30 µM | > 10 µM |
| Cc1cc(C2CCCCC2)n(O)c(=O)c1 [CICLOPIROX] |  | > 30 µM |  |  | > 30 µM |  |  | > 30 µM | > 30 µM |  |  |  | > 30 µM |
| O=C(O)Cc1ccccc1Nc1c(Cl)cccc1Cl [DICLOFENAC] | > 10 µM | > 10 µM | > 10 µM | > 30 µM | > 30 µM | > 10 µM | > 10 µM | > 30 µM |  | > 30 µM | > 10 µM | > 10 µM | > 3 µM |
| O=C(O)Cc1ccccc1Oc1ccc(Cl)cc1Cl [FENCLOFENAC] | > 10 µM | > 10 µM | > 10 µM | > 30 µM | > 30 µM | > 10 µM | > 10 µM | > 10 µM |  | > 30 µM | > 10 µM | > 10 µM | > 30 µM |
| Cc1ccc(C)c(OCCCC(C)(C)C(=O)O)c1 [GEMFIBROZIL] | > 10 µM | > 10 µM | > 10 µM | > 30 µM | > 30 µM | > 10 µM | > 10 µM | > 10 µM |  | > 30 µM | > 10 µM | > 10 µM | > 30 µM |
